{"source": "patent US20240269139A1", "about": "“COMPOUNDS FOR TARGETED PROTEIN DEGRADATION OF KINASES” (DANA-FARBER CANCER INSTITUTE, INC., priority 2020, published 2024)", "type_in_all_cases": "cell-based", "key": {"[1]": {"target": "protein kinases (human kinome) (Homo sapiens, UniProt Q16832)", "sequence (Q16832 22-855)": "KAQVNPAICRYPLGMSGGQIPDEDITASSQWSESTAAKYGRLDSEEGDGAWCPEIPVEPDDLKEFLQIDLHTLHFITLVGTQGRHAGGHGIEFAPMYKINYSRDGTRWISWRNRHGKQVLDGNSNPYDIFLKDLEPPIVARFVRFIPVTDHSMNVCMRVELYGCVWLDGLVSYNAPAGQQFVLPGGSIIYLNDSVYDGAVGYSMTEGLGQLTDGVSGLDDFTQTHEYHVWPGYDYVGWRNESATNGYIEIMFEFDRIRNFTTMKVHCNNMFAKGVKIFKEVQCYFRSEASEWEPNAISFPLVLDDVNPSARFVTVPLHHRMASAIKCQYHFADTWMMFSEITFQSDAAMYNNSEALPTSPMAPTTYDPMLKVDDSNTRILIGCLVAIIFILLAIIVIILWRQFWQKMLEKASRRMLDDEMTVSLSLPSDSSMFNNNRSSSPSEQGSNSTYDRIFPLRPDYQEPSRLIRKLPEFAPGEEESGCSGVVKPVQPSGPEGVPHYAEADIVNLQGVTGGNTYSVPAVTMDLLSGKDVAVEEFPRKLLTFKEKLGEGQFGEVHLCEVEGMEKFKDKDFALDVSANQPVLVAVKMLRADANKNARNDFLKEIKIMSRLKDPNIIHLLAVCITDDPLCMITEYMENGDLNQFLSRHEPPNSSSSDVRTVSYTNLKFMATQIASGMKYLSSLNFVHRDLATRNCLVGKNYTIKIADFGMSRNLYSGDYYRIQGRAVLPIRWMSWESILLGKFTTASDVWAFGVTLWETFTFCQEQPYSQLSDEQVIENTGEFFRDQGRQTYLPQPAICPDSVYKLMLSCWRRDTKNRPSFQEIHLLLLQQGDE"}, "[2]": {"target": "T1, protein kinases (human kinome) (Homo sapiens, UniProt Q9UQ88)", "T1 sequence (Q9UQ88 1-783)": "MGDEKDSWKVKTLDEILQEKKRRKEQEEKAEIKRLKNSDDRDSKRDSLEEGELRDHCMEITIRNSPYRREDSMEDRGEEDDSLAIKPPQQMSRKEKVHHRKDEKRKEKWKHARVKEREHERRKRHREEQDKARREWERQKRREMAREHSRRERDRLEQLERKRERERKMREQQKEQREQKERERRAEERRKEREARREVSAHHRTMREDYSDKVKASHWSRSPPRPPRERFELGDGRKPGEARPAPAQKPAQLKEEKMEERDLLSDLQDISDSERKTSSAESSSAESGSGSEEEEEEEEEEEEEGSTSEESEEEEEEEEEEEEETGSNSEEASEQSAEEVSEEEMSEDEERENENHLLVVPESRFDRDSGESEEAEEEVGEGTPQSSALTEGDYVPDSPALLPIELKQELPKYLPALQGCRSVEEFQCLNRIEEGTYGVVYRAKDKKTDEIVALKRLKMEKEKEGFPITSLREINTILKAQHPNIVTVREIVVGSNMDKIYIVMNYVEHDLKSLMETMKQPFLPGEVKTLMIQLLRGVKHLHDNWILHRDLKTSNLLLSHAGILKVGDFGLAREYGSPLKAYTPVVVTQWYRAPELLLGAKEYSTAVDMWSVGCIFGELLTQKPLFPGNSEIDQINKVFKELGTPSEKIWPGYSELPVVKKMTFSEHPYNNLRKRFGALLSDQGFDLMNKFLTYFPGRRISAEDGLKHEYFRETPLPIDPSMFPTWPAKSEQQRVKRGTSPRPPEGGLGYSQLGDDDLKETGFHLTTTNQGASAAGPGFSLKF", "settings": "experiment wp105"}, "[3]": {"target": "protein kinases (human kinome) (Homo sapiens, UniProt Q8N4C8)", "sequence (Q8N4C8 whole entry)": "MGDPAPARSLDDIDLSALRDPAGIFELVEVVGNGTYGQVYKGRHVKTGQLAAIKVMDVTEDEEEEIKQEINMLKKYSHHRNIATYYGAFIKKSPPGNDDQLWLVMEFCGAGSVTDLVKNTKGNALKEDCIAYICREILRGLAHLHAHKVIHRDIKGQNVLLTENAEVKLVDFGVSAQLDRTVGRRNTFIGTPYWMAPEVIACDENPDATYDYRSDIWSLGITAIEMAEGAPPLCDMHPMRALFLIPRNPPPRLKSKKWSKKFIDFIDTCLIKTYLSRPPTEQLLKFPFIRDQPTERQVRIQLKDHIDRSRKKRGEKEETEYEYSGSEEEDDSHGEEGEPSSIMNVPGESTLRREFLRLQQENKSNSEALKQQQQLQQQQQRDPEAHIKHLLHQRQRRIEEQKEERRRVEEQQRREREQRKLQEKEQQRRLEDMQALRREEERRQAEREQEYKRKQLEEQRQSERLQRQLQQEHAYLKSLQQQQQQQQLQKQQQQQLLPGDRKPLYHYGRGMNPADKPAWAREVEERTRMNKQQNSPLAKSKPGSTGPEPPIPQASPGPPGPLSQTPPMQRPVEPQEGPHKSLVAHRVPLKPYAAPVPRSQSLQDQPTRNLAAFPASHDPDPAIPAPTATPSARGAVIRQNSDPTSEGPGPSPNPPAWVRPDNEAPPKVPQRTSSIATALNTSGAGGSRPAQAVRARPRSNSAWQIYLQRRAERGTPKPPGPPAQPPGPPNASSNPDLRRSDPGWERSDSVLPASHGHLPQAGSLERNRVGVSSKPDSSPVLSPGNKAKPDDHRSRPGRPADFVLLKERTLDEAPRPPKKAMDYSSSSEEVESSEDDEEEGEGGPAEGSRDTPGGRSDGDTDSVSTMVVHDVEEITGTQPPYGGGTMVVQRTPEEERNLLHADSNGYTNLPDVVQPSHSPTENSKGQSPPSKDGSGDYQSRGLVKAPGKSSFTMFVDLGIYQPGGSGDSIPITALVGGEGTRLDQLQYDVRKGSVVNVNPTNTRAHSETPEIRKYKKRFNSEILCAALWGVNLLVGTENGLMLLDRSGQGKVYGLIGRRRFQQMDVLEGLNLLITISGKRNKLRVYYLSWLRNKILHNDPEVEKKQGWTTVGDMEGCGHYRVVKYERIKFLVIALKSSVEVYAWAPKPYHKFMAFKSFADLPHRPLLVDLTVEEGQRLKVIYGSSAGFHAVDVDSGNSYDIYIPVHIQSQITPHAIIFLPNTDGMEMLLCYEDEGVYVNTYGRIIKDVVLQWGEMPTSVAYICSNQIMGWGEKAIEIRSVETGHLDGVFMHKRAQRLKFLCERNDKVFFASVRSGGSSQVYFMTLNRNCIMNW", "settings": "experiment wp107"}, "[4]": {"target": "protein kinases (human kinome) (Homo sapiens, UniProt Q9P2K8)", "settings": "experiment wp080"}, "[5]": {"target": "protein kinases (human kinome) (Homo sapiens, UniProt Q16877)", "settings": "PFKFB4 (Q16877); experiment wp080"}, "[6]": {"target": "protein kinases (human kinome) (Homo sapiens, UniProt P29317)", "sequence (P29317 24-976)": "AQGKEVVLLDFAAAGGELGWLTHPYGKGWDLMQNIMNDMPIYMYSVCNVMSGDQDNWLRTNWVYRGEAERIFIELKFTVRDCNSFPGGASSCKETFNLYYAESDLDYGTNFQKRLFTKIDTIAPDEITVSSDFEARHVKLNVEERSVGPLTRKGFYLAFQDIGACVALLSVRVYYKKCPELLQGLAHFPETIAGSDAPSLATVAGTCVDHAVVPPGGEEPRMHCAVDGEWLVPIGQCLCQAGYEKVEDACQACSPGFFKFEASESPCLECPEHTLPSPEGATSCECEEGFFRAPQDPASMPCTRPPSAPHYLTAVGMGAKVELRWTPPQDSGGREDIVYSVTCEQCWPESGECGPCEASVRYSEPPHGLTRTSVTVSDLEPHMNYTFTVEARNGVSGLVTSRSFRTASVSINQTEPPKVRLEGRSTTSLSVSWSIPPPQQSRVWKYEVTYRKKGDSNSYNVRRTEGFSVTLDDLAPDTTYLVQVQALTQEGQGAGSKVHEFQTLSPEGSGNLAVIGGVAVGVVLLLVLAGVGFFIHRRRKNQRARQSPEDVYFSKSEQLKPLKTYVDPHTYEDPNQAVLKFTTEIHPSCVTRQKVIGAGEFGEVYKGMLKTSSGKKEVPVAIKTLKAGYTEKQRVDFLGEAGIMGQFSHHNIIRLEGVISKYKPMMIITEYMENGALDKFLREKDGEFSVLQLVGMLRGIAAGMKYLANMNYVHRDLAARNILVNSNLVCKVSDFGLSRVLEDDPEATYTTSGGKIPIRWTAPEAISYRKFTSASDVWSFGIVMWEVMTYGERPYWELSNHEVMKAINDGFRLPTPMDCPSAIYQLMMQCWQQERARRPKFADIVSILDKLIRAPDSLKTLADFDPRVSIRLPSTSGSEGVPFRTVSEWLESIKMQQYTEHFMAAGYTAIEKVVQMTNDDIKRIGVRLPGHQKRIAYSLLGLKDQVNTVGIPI", "settings": "for logFC: EPHA2 (P29317)"}, "[7]": {"target": "T2, protein kinases (human kinome) (Homo sapiens, UniProt O43318)", "T2 sequence (O43318 1-606)": "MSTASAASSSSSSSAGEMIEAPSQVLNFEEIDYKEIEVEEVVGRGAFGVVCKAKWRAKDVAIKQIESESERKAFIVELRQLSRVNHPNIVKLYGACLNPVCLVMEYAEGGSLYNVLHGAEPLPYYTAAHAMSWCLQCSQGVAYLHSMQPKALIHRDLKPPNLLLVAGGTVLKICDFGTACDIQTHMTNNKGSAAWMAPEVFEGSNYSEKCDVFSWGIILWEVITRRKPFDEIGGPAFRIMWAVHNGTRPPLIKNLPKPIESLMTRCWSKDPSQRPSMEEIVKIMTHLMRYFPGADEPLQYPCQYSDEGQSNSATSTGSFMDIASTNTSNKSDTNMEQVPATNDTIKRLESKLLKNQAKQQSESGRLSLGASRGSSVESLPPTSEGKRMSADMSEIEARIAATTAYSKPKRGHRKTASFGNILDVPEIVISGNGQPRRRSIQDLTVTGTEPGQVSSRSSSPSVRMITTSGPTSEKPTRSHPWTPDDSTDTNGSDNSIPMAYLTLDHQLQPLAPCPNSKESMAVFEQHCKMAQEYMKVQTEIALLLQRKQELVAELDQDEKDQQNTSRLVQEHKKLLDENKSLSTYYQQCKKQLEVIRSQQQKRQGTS", "settings": "MAP3K7 (O43318)"}, "[8]": {"target": "protein kinases (human kinome) (Homo sapiens, UniProt Q01415)", "sequence (Q01415 whole entry)": "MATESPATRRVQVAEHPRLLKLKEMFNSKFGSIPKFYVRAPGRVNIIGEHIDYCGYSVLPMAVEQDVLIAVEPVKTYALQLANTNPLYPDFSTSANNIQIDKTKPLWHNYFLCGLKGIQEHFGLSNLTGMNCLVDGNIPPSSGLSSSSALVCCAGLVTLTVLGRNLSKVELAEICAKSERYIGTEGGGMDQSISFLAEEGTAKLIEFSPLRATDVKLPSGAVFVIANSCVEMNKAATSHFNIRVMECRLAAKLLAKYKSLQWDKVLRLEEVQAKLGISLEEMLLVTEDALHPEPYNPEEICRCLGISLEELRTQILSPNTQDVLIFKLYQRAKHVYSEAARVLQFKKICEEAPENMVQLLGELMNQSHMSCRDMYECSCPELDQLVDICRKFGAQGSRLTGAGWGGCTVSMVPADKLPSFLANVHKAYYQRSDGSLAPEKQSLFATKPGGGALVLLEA", "settings": "protein GALK2 (Q01415-1); experiment wp056; down"}, "[9]": {"target": "protein kinases (human kinome) (Homo sapiens, UniProt Q16644)", "sequence (Q16644 whole entry)": "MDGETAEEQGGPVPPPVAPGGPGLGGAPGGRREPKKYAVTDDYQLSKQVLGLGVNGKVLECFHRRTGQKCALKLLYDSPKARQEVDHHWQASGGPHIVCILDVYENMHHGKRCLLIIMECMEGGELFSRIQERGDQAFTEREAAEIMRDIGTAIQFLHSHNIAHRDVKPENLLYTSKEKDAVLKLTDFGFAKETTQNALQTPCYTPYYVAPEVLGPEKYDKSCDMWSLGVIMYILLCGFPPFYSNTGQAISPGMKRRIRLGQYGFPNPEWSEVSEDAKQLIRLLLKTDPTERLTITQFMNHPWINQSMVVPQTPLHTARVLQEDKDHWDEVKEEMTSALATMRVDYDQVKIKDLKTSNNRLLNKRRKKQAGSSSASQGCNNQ", "settings": "experiment wp168"}, "[10]": {"target": "protein kinases (human kinome) (Homo sapiens, UniProt P48736)", "sequence (P48736 whole entry)": "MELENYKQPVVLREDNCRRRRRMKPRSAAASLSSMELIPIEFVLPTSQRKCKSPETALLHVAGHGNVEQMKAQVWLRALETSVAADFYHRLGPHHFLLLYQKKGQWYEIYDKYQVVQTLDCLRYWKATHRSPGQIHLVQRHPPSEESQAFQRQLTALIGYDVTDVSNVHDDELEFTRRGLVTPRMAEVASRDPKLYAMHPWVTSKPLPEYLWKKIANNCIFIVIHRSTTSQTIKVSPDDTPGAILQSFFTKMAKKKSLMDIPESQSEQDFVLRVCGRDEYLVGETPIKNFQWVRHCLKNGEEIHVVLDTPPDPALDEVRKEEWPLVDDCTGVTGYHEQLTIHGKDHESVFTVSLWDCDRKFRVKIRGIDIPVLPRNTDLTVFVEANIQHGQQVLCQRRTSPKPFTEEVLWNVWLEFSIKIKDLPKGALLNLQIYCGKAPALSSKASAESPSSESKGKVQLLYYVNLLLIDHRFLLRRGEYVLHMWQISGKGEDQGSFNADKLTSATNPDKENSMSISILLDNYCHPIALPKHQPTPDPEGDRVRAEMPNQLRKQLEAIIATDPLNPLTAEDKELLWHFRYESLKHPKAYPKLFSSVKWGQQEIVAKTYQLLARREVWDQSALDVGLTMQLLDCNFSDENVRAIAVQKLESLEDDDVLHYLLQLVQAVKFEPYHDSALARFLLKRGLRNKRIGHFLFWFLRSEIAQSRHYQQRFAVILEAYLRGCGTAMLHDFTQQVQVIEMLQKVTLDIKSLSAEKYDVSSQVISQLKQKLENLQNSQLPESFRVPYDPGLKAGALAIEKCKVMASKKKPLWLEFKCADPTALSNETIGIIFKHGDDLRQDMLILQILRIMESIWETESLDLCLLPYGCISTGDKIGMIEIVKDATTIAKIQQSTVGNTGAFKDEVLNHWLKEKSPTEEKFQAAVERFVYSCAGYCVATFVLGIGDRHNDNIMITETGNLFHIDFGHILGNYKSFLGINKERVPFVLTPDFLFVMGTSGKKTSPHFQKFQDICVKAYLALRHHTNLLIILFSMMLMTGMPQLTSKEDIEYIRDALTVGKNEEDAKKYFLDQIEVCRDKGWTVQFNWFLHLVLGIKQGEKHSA"}}, "note": "Read-outs that look alike come from different tables or passages of the source.", "data": [{"smiles": "Cc1ccc(NC(=O)c2cccc(C(F)(F)F)c2)cc1N1Cc2cnc(Nc3ccc(N4CCN(Cc5cn(CCCCCOc6cccc7c6C(=O)N(C6CCC(=O)NC6=O)C7=O)nn5)CC4)nc3)nc2N(C)C1=O", "note": "(stereo not shown) [DB0646, N-(3-(7-((6-(4-((1-(5-((2-(2,6-Dioxopiperidin-3-yl)-1,3-dioxoisoindolin-4-yl)oxy)pentyl)-1H-1,2,3-triazol-4-yl)methyl)piperazin-1-v)pyridin-3-yl)amino)-1-methyl-2-oxo-1,4-dihydropyrimido[4,5-d]pyrimidin-3(2H)-yl)-4-methylphenyl)-3-(trifluoromethyl)benzamide]", "values": [{"measurement": "logFC DDR2 (Q16832)", "setting": "[1]; Experiment wp105, direction of change down", "value": "−0.4741"}, {"measurement": "logFC DDR2", "setting": "[1]; protein DDR2 (Q16832), experiment wp105, down", "value": "−0.4741"}, {"measurement": "logFC", "setting": "[2]; CDK11A (Q9UQ88-1)", "value": "−0.868"}, {"measurement": "logFC of CDK11A (Q9UQ88-1)", "setting": "[2]", "value": "−0.868"}]}, {"smiles": "Nc1ncc(-c2ccc(S(=O)(=O)N(CCCNC(=O)CCOCCOCCOCCOCCOCCNc3cccc4c3C(=O)N(C3CCC(=O)NC3=O)C4=O)C3CC3)cc2)cc1-c1ccc2c(c1)CCNC2=O", "note": "(stereo not shown) [WH.10417.099]", "values": [{"measurement": "logFC MINK1 (Q8N4C8-1)", "setting": "[3]; direction of change down", "value": "−0.5661"}, {"measurement": "logFC MINK1", "setting": "[3]; protein MINK1 (Q8N408-1), down", "value": "−0.5661"}]}, {"smiles": "Cc1ncsc1-c1ccc([C@H](C)NC(=O)[C@@H]2C[C@@H](O)CN2C(=O)[C@@H](NC(=O)CCCCCN2CCN(c3ccc(Nc4ncc5scc(-c6cccc(NS(C)(=O)=O)c6)c5n4)cc3)CC2)C(C)(C)C)cc1", "note": "[RSS0680, (2S,4R)-1-((S)-3,3-Dimethyl-2-(6-(4-(4-((7-(3-(methylsulfonamido)phenyl)thieno[3,2-d]pyrimidin-2-yl)amino)phenyl)piperazin-1-yl)hexanamido)butanoyl)-4-hydroxy-N—((S)-1-(4-(4-methylthiazol-5yl)phenyl)ethyl)pyrrolidine-2-carboxamide]", "values": [{"measurement": "logFC EIF2AK4 (Q9P2K8-1)", "setting": "[4]; direction of change down", "value": "−0.3311"}, {"measurement": "logFC EIF2AK4", "setting": "[4]; protein EIF2AK4 (Q9P2K8-1), down", "value": "−0.3311"}, {"measurement": "logFC", "setting": "[5]", "value": "−0.3389"}]}, {"smiles": "Cc1ccc(C(=O)Nc2ccc(CN3CCN(CCCOCCOCCOCCNC(=O)COc4cccc5c4C(=O)N(C4CCC(=O)NC4=O)C5=O)CC3)c(C(F)(F)F)c2)cc1C#Cc1cnc2cccnn12", "note": "(stereo not shown) [SB1.G.187]", "values": [{"measurement": "logFC", "setting": "[6]; experiment wp114", "value": "−0.401"}, {"measurement": "logFC", "setting": "[6]; experiment wp172", "value": "−0.4107"}, {"measurement": "logFC of EPHA2 (P29317)", "setting": "[6]; Experiment wp114", "value": "−0.401"}, {"measurement": "logFC of EPHA2 (P29317)", "setting": "[6]; Experiment wp172", "value": "−0.4107"}, {"measurement": "logFC", "setting": "[7]; experiment wp056", "value": "−1.003"}, {"measurement": "logFC", "setting": "[7]; experiment wp056, direction down", "value": "−1.003"}, {"measurement": "logFC", "setting": "[7]; experiment wp103", "value": "−1.374"}, {"measurement": "logFC", "setting": "[7]; experiment wp103, direction down", "value": "−1.374"}, {"measurement": "logFC", "setting": "[7]; experiment wp105", "value": "−1.031"}, {"measurement": "logFC", "setting": "[7]; experiment wp105, direction down", "value": "−1.031"}, {"measurement": "logFC", "setting": "[7]; experiment wp107", "value": "−1.33"}, {"measurement": "logFC", "setting": "[7]; experiment wp107, direction down", "value": "−1.33"}, {"measurement": "logFC", "setting": "[7]; experiment wp172", "value": "−0.5772"}, {"measurement": "logFC", "setting": "[7]; experiment wp172, direction down", "value": "−0.5772"}]}, {"smiles": "C=CCn1c(=O)c2cnc(Nc3ccc(N4CCN(CCCNc5cccc6c5C(=O)N(C5CCC(=O)NC5=O)C6=O)CC4)cc3)nc2n1-c1cccc(C(C)(C)O)n1", "note": "(stereo not shown) [ZNL.02.096]", "values": [{"measurement": "logFC GALK2", "setting": "[8]", "value": "−0.3724"}]}, {"smiles": "Cc1ccc(NC(=O)c2cccc(C(F)(F)F)c2)cc1N1Cc2cnc(Nc3ccc(N4CCN(CCCCC(=O)N[C@H](C(=O)N5C[C@H](O)C[C@H]5C(=O)N[C@@H](C)c5ccc(-c6scnc6C)cc5)C(C)(C)C)CC4)nc3)nc2N(C)C1=O", "note": "[DB1113]", "values": [{"measurement": "logFC", "setting": "[9]; MAPKAPK3 (Q16644)", "value": "−3.127"}, {"measurement": "logFC MAPKAPK3 (Q16644)", "setting": "[9]; direction of change down", "value": "−3.127"}]}, {"smiles": "O=C1CCC(N2C(=O)c3cccc(NCCCCCCCCN4CCC(NC(=O)c5[nH]ncc5NC(=O)c5c(Cl)cccc5Cl)CC4)c3C2=O)C(=O)N1", "note": "(stereo not shown) [MFH.5.126.1]", "values": [{"measurement": "logFC PIK3CG (P48736)", "setting": "[10]; Experiment wp076, direction of change down", "value": "−0.3735"}, {"measurement": "logFC", "setting": "[10]; PIK3CG (P48736), experiment wp076", "value": "−0.3735"}]}]}
